In general, EC50 refers to the concentration needed to bring the measured effect to its halfway point. The term IC50 denotes the concentration needed to halve the response being measured.

The target of assay [1] is T1, RXRα Homodimer (Homo sapiens, UniProt P19793).
T1 construct: expressed in transfected cells; host or cells: mammalian cells (BHK21, CV1, etc)
T1 sequence (P19793 1-462): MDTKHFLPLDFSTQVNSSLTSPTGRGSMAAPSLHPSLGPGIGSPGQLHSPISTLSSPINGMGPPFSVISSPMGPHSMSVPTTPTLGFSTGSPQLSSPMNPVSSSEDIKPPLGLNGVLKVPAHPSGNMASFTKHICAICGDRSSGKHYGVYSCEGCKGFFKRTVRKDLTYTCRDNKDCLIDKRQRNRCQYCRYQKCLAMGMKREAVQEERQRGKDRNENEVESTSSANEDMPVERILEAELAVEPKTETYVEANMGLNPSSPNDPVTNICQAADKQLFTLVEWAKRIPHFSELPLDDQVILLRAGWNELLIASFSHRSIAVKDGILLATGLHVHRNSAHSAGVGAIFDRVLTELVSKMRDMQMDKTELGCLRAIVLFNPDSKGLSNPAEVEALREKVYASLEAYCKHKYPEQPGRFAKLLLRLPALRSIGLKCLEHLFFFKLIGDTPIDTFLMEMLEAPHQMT
The assay can be described thus: RXRα homodimer activation (transactivation) assay. In kind it is cell-based. From the text: (§1) Nuclear hormone receptor (NHR) ligand dependent transcriptional transactivation assay.
This secondary in vitro functional assay to characterize hits from the primary ligand binding screens is a GAL4-LBD transactivation assay. The Gal4-LBD protein consists of an in frame fusion of the transcription factor galactose 4 DNA binding domain from S.cerevisiae with the ligand binding domain (LBD) of a particular NHR. Briefly, a plasmid construct expressing the recombinant chimeric receptor is co-transfected into mammalian cells (BHK21, CV1, etc) with a luciferase reporter plasmid containing several copies in tandem of the GAL4 binding sites (promoter recognition elements) upstream from the minimal promoter driving the luciferase gene. The transfected cells are treated with compounds for 12-24 hours, lysates are produced and assayed for luciferase activity and normalized to internal standards such as GH, growth hormone or SEAP, secreted alkaline phosphatase. Ligand binding stabilizes the LBD conformation that recruits endogenous co-factors that mediate eventually the increased transcriptional activity of the luciferase reporter gene. By comparing the activation profile of a reference ligand or a natural ligand, the EC50 values for agonistic activity of a particular ligand can be measured. The extent of activation that can be measured is indicative of a partial, respectively full agonistic activity of a ligand. […]

Assay [2] deals with T2, RXRα (Homo sapiens, UniProt P19793).
T2 sequence (P19793 1-462): T1 sequence (P19793 1-462)
The experiment in a line: Retinoid activation assay, RXRα (Schneider SL-3 cells, luciferase reporter). In kind it is cell-based. As to conditions: read-out: Activation EC50 RXR α. The procedure:
(§2) Full length RXR cDNA is used for transfection. As reporter system, the luciferase gene is used in a construct with three copies of a RXR response element from rat CRBP gene, (formerly RARE from betaRAR gene), fused to alcoholdehydrogenase gene promoter in the plasmid pGL2-basic. Schneider SL-3 cells from Drosophila are transiently transfected 3-4 h before the experiment by the Ca-phosphate-DNA coprecipitation method. […] At the end of the incubation, the cell supernatants are assayed for luciferase activity. Results are given as EC50 (nM), the concentration leading to half-maximal activation.
On the technique in general: A reporter such as luciferase makes a cellular process visible.

Assay [3] concerns the target T2, RXRα. The experiment in a line: Retinoid binding assay, RXRα. Also noted: made in house; host or cells: E. coli. As to conditions: [3H] 9-cis retinoic acid 20 nM; read-out: Binding Affinity IC50 RXR α. From the text: (§3) The DEF domains of RAR's and the full length RXR's, expressed in E.coli, are used to measure competitive retinoid binding. […] 9-cis retinoic acid (for RXR's), respectively. […] Separation of bound from free radioactivity is achieved by charcoal/dextran (RAR's) or by desalting columns (RXR's). […] Retinoid Activation Assays

Assay [4] concerns the target T3, RXRγ (Homo sapiens, UniProt P48443).
T3 sequence (P48443 1-463): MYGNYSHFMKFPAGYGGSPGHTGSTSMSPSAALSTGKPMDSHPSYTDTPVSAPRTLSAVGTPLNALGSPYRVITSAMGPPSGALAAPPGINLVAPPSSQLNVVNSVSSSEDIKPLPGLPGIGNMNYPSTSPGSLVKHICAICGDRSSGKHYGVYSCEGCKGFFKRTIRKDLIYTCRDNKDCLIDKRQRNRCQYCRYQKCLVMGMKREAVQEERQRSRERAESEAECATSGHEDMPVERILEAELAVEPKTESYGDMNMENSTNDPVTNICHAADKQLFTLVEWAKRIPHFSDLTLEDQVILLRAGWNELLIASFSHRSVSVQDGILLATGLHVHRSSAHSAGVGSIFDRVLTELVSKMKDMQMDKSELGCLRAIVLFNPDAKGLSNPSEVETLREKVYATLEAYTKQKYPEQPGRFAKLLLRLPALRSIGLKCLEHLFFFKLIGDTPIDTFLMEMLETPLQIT
The assay can be described thus: Retinoid binding assay, RXRγ. Also noted: made in house; host or cells: E. coli. As to conditions: [3H] 9-cis retinoic acid 20 nM; read-out: Binding Affinity IC50 RXR γ.
Source text: as §3

Assay [5] deals with T4, PPARγ/RXRα Heterodimer (Homo sapiens, UniProt P19793).
T4 construct: co-transfected with plasmids expressing the full length RXR heteropartner receptor; expressed in transfected cells
T4 sequence (P19793 1-462): T1 sequence (P19793 1-462)
T4 sequence (P37231 1-505 partner): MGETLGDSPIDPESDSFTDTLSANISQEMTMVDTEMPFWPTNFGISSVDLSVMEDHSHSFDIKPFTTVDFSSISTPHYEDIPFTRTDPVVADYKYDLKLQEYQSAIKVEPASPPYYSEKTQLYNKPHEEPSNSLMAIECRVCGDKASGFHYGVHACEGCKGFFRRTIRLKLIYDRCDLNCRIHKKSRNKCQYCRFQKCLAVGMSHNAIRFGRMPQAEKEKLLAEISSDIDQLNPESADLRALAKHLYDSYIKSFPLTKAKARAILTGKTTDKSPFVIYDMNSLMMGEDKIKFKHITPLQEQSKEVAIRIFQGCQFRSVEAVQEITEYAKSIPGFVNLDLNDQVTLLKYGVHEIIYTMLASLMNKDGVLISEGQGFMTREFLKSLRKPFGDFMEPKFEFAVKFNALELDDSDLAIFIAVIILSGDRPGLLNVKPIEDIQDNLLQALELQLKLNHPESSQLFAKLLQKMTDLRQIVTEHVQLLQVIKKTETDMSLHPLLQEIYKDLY
The assay can be described thus: PPARγ/RXRα heterodimer activation (transactivation) assay. In kind it is cell-based.
Source text: as §1
Heterodimer reporter assays are potentially more important selection criteria for synthetic agonistic NHR ligands as they embody a more natural situation. Basically plasmids expressing the recombinant full length NHR are co-transfected with plasmids expressing the full length RXR heteropartner receptor and a reporter plasmid containing several copies of the natural responsive elements for the respective NHR driving the luciferase reporter gene.

For assay [6], the target named is T5, RXRβ (Homo sapiens, UniProt P28702).
T5 construct: Full length RXR cDNA is used for transfection; expressed in transfected cells; host or cells: Schneider SL-3 cells (Drosophila)
T5 sequence (P28702 1-533): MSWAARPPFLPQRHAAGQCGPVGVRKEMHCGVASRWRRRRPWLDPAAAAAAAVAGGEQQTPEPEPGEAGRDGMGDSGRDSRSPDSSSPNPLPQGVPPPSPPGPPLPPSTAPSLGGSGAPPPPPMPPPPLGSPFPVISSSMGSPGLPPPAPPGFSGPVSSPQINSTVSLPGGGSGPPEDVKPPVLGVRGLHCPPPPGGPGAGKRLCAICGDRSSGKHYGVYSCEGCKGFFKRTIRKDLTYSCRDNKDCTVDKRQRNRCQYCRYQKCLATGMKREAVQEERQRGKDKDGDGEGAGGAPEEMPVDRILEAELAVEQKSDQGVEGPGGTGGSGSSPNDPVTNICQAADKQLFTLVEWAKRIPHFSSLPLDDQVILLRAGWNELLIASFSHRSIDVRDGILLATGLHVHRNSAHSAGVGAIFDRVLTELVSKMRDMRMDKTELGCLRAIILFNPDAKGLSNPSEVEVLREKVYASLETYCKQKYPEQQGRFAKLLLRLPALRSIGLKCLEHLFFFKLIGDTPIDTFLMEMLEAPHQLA
The experiment in a line: Retinoid activation assay, RXRβ (Schneider SL-3 cells, luciferase reporter). In kind it is cell-based. The settings on record: read-out: Activation EC50 RXR β. As for the experimental part: as §2

Assay [7] concerns the target T3, RXRγ. The assay can be described thus: Retinoid activation assay, RXRγ (Schneider SL-3 cells, luciferase reporter). In kind it is cell-based. As to conditions: read-out: Activation EC50 RXR γ. The procedure: as §2

As for `CCCCCCCOc1c(\C(C)=C/C=C/C(C)=C/C(=O)O)cc(C(C)C)cc1C(C)C` [Compound 19, (2E,4E,6Z)-7-(2-Heptyloxy-3,5-diisopropyl-phenyl)-3-methyl-octa-2,4,6-trienoic acid], the values for the EC50 in assay [1], in assay [2] and in assay [5] were more than 10000 nM, not below 10000 nM and more than 10000 nM, respectively. The values for the IC50 in assay [3] and in assay [4] were 9 nM and 19 nM, respectively.
Turning to `CCCOc1cc2c(cc1[C@@H]1C[C@@H]1/C=C/C(C)=C/C(=O)O)C(C)(C)CCC2(C)C` (racemic) [Compound 22, (2E,4E)-3-Methyl-5-[(1RS,2RS)-2-(5,5,8,8-tetramethyl-3-propoxy-5,6,7,8-tetrahydro-naphthalen-2-yl)-cyclopropyl]-penta-2,4-dienoic acid], the EC50 in assay [1] is more than 10000 nM; in assay [6], more than 10000 nM; in assay [2], more than 10000 nM; in assay [7], more than 10000 nM; in assay [5], more than 30 nM. In addition, the figures for the IC50 in assay [3] and in assay [4] were 300 nM and 700 nM, respectively.
On to `CCCOc1c([C@@H]2C[C@@H]2/C=C/C(C)=C/C(=O)O)cc(C(C)(C)C)cc1C(C)(C)C` (racemic) [Compound 20, (2E,4E)-5-[2-(3,5-Di-tert-butyl-2-propoxy-phenyl)-cyclopropyl]-3-methyl-penta-2,4-dienoic acid], for which the EC50 was more than 10000 nM in assay [1], not below 10000 nM in assay [2], not below 10000 nM in assay [7] and more than 10000 nM in assay [5]. The IC50 in assay [3] was 52 nM; in assay [4], 71 nM.
Take `CC(/C=C/[C@@H]1C[C@@H]1c1ccc2c(c1)C(C)(C)CCC2(C)C)=C\C(=O)O` (stereo in doubt) [Compound 10, (2E,4E)-3-Methyl-5-[(1S,2S)-2-(5,5,8,8-tetramethyl-5,6,7,8-tetrahydro-naphthalen-2-yl)-cyclopropyl]-penta-2,4-dienoic acid]: the EC50 in assay [1] was found to be 2.6 nM; in assay [6], 28 nM; in assay [2], 2.6 nM; in assay [7] it was 65 nM; in assay [5] it was 6 nM. For the same compound, the IC50 in assay [3] is 110 nM; in assay [4] it was 122 nM.
Consider `CCc1cc2c(cc1\C(C)=C/C=C/C(C)=C/C(=O)O)CCCC2C` (racemic) [Compound 11, (2E,4E,6Z)-(RS)-7-(3-Ethyl-5-methyl-5,6,7,8-tetrahydro-naphthalen-2-yl)-3-methyl-octa-2,4,6-trienoic acid], for which the EC50 in assay [1] was determined as 2 nM; in assay [6], 17 nM; in assay [2] it was 2.1 nM; in assay [7] it was 37 nM; in assay [5], 10 nM. Besides, the IC50 in assay [3] was determined as 65 nM; in assay [4] it was 56 nM.

These data come from patent US20080255206A1, “Rxr Agonists and Antagonists, Alone or in Combination with Ppar Ligands, in the Treatment of Metabolic and Cardiovascular Diseases” (priority 2005, published 2008).
